Measurements: patent publication US6944493B2 (priority 1999, dated 2005)

Experiments:
Viscosity evaluation = assay type: physicochemical; conditions: ICG 50 mg/ml to 75 mg/ml, WFI as the lone diluent

Row | consistency of composition (Viscosity evaluation) | solubility in WFI (non-lyophilized, crystalline material) | SMILES | solubility in WFI versus inventive diluent (lyophilized (amorphous) material)
1 | paste-like consistency |  | CC1(C)C(/C=C/C=C/C=C/C=C2\N(CCCCS(=O)(=O)O)c3ccc4ccccc4c3C2(C)C)=[N+](CCCCS(=O)(=O)[O-])c2ccc3ccccc3c21 [ICG, Indocyanine green] | comparable up to 25 mg/ml, wherein the inventive diluent is superior at concentrations above that level
2 |  | low solubility in WFI | CC1(C)C(/C=C/C=C/C=C/C=C2\N(CCCCS(=O)(=O)O)c3ccc4ccccc4c3C2(C)C)=[N+](CCCCS(=O)(=O)[O-])c2ccc3ccccc3c21 [crystalline ICG, Indocyanine green] | 
